Values quoted from earlier work, collected in patent publication US7795435B2, “Process for obtaining the polymorphic form I of finasteride” (Ragactives, S.L., priority 2002, dated 2010).

Conditions: 25° C., according to EP 0 599 376 B1

Structure (SMILES)	solubility in cyclohexane [mg/g]	solubility in water [mg/g]
CC(C)(C)NC(=O)[C@H]1CC[C@H]2[C@@H]3CC[C@H]4NC(=O)C=C[C@]4(C)[C@H]3CC[C@]12C [Form II of finasteride]	0.42 ± 0.05	0.16 ± 0.02
CC(C)(C)NC(=O)[C@H]1CC[C@H]2[C@@H]3CC[C@H]4NC(=O)C=C[C@]4(C)[C@H]3CC[C@]12C [Form I of finasteride]	0.27 ± 0.05	0.05 ± 0.02
